Assays:
α1dAR = target: T1, α1dAR (Homo sapiens, UniProt P25100); experiment: BMY7378 competition binding vs [125I]HEAT in human detrusor membranes, high affinity site; conditions: share of total binding sites with high affinity, two-site fit, n=13
T1 construct: from tissue; host or cells: human bladder detrusor smooth muscle membranes
T1 sequence (P25100 1-572): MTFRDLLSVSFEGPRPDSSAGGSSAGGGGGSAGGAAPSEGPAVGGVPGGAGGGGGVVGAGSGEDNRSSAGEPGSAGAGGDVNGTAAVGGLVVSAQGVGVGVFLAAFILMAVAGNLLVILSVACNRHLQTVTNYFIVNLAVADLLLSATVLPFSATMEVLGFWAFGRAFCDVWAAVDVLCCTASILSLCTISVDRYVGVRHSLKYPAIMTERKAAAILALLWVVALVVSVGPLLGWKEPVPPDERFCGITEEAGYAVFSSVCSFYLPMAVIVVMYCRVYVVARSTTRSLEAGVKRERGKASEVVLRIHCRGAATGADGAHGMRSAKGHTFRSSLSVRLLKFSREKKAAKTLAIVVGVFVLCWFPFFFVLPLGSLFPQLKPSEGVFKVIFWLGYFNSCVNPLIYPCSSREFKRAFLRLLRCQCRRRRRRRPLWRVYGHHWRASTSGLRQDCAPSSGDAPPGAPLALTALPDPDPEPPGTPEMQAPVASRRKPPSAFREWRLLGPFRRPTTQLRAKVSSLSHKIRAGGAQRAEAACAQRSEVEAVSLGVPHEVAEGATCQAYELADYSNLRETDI
Method: (§1) Human detrusor and rat bladder membrane preparation. Human detrusor and rat whole bladder was minced over dry ice, and suspended in cold lysis buffer (5 mM Tris HCl and 5 mM EDTA, pH 7.4) with protease inhibitors benzamidine (10 mg/ml), leupeptin (5 mg/ml), and soybean trypsin inhibitor (10 mg/ml) (Sigma Chemical Company; St. Louis, Mo.). A lysate was prepared with a Polytron PT 3000 (Brinkmann; Westbury, N.Y.) at 10,000 rpm for 10 seconds. After pelleting at 40,000×g for 15 minutes (Sorvall SM24 rotor), membranes were suspended in cold resuspension buffer (150 mM NaCl, 50 mM Tris-HCl, 5 mM EDTA, pH 7.4) with protease inhibitors, and kept on ice for immediate use (or stored at −70° C. for later use). Protein content was determined using the bicinchoninic assay (BCA) with bovine serum albumin (BSA) standards (Pierce; Rockford, Ill.).
(§2) Reaction conditions were as described above. Curves were fit with […] regression analysis using InPlot software (GraphPad).

α1aAR = target: T2, α1aAR (Homo sapiens, UniProt P35348); experiment: BMY7378 competition binding vs [125I]HEAT in human detrusor membranes, low affinity site; conditions: share of total binding sites with low affinity, two-site fit, n=13
T2 construct: from tissue; host or cells: human bladder detrusor smooth muscle membranes
T2 sequence (P35348 1-466): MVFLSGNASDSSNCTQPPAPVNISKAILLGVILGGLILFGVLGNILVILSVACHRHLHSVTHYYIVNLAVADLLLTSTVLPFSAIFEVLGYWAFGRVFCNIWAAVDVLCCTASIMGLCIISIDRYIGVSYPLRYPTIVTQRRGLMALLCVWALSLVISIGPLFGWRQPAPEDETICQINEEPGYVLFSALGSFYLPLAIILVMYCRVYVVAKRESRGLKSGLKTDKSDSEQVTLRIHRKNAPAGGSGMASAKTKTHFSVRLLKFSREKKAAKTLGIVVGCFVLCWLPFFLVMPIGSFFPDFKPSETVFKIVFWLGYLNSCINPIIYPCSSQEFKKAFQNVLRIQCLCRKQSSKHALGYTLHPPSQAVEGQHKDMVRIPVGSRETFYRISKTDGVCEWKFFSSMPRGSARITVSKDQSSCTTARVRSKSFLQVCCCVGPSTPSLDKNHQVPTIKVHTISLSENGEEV
Method: as §1, §2

α1bAR = target: T3, α1bAR (Homo sapiens, UniProt P35368); experiment: BMY7378 competition binding, membranes from rat-1 fibroblasts stably transfected with α1bAR (control); conditions: Control α1b: rat-1 fibroblast membranes stably transfected with α1bAR; read-out: pKi α1bAR (converted)
T3 construct: expressed in transfected cells; host or cells: rat-1 fibroblasts, stably transfected; membranes
T3 sequence (P35368 1-520): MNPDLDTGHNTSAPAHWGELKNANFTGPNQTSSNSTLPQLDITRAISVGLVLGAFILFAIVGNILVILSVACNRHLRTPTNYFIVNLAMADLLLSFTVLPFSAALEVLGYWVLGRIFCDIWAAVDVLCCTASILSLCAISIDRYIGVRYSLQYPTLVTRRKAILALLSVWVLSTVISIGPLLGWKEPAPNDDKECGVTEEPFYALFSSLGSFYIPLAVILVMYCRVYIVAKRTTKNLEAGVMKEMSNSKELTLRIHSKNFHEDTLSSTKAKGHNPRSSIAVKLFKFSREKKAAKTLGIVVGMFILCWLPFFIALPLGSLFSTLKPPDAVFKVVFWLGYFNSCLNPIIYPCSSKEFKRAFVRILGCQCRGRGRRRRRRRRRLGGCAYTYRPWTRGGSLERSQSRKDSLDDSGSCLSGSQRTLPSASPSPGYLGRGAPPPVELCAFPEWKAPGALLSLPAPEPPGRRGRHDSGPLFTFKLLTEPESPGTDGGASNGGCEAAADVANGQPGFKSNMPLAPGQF
Description: as §2

α1ARs in human detrusor = experiment: [125I]HEAT saturation binding in human detrusor membranes; conditions: saturation binding isotherm, n=5
Method: as §1
Radioligand binding. All mRNA and protein studies described were performed using detrusor from each patient described above (n=13). […] Dried filters were then counted in a gamma counter. Specific binding was calculated by subtracting nonspecific binding from total binding. […] Total α1AR density was then determined in each detrusor sample as described above, using a saturating concentration of [^125I]HEAT (300 pM). […]

Question: For `COc1ccccc1N1CCN(CCN2C(=O)CC3(CCCC3)CC2=O)CC1` [BMY7378], which “% High” value (α1dAR) is on record?
Answer: The value was 66±3.1%.

Question: What about the “% Low” value (α1aAR) of the same compound?
Answer: Its value is 35±3.1%.

Question: What about the Ki (α1bAR) of the same compound?
Answer: Its Ki is 7.94 µM.

Question: With `O=C1c2ccccc2CCC1CNCCc1ccc(O)c(I)c1` (stereo not shown) [[125I]HEAT] as the compound, how does the Kd (α1ARs in human detrusor) read?
Answer: The Kd was 0.00013 ± 1.09e-06 µM.

Reference: patent US7858312B2, “Method of treating bladder and lower urinary tract syndromes” (Duke University, priority 1998, dated 2010)
